Assay results taken from article PMC10746280, “Bacterial efflux pump modulators prevent bacterial growth in macrophages and under broth conditions that mimic the host environment” (mBio, 2023).

What was measured:
RAW 264.7 macrophages = assay: SAFIRE macrophage assay: host toxicity (adherent macrophage count, morphology); format: cell-based
Source text: (§1) In SAFIRE, we used MATLAB software to count the number of macrophages that remain adherent and retain the red fluorescence of MitoTracker, an indicator of voltage across the mitochondrial inner membrane. MATLAB then calculates the signal from bacteria (green fluorescent protein [GFP]) that overlaps with macrophages, as defined by MitoTracker, to estimate bacterial load. […] For example, we observed that the 6-trifluoropyrimidin-2-yl group on the right-hand side of EPM35 is apparently toxic to macrophages. Non-toxic analogs that reduced bacterial load by at least 60% at 5 µM and 25 µM in SAFIRE, as compared with DMSO, progressed and were evaluated in SAFIRE across eight or more concentrations, ranging from 0.001 µM to 50 µM (n = 2). […] Each of the top 13 analogs had at least an eightfold increase in potency and were not toxic for macrophages at 50 µM in the SAFIRE assay (Fig. 1C).
(§2) As previously described ([18]), RAW 264.7 macrophages (between passages 1 and 6) were grown in complete Dulbecco’s modified Eagle’s medium (DMEM) to approximately 70% to 90% confluence, scraped, washed, resuspended, diluted to 5 × 10^4 in 100 µL, and seeded in black, 96-well, glass-bottomed plates (Brooks Life Sciences catalog number MGB096-1-2-LG-L) at 37°C with 5% CO2. Twenty-four hours later, bacteria grown overnight in LB were diluted into 50 µL phosphate buffered saline (PBS) and added to a final concentration of 1 × 10^7 S. Typhimurium SL1344 (sifB::gfp) per milliliter ([78]) for an approximate multiplicity of infection of 30 bacteria per macrophage cell. Forty-five minutes after bacterial addition, gentamicin (Sigma catalog number G1264) was added to a final concentration of 40 µg/mL to inhibit the growth of remaining extracellular bacteria. Two hours after infection, gentamicin-containing medium was removed and replaced with 200 µL fresh DMEM with compound or DMSO (Sigma catalog number 276855) to the stated final concentrations. At 17.5 h after infection, PBS containing MitoTracker Red CMXRos (Life Technologies catalog number M7512), a vital dye for mitochondrial electric potential, was added to a final concentration of 100 nM. At 18 h after infection, 16% paraformaldehyde was added to a final concentration of 4% and incubated at room temperature for 15 min. Cells were washed twice with PBS and stained for 20 min with 1 µM 4′,6-diamidino-2-phenylindole (DAPI), a vital dye for double-stranded DNA, and stored in 90% glycerol in PBS until imaging. Samples were imaged in six fields of view per well using a semiautomated Yokogawa CellVoyager CV1000 confocal scanner system with a 20×, 0.75-numerical aperture (NA) objective. A MATLAB algorithm calculated bacterial accumulation (GFP fluorescence) within macrophages, as defined by DAPI and MitoTracker Red. GFP^+ macrophage area was defined as the number of GFP-positive pixels per macrophage divided by the total number of pixels per macrophage, averaged across all macrophages in the field ([34]).

[1] = test system: S. Typhimurium SL1344 (sifB::gfp) in RAW 264.7 macrophages; assay: SAFIRE macrophage assay: intracellular bacterial load (GFP signal within macrophages); format: cell-based, Salmonella enterica serotype Typhimurium
Source text: as §1, §2

[2] = 5 uM, 'Toxic' given instead of a score
[3] = 25 uM, 'Toxic' given instead of a score

Row | SMILES | 5 uM Avg Cell # Score (RAW 264.7 macrophages; 5 uM) | 25 uM Avg Cell # Score (RAW 264.7 macrophages; 25 uM) | 5 uM Avg Antibacterial Score [1, 2] | 25 uM Avg Antibacterial Score [1, 3] | 5 uM Avg Cell # Score (RAW 264.7 macrophages; 5 uM compound, n=1, DMSO solvent control = 100) | 25 uM Avg Cell # Score (RAW 264.7 macrophages; 25 uM compound, n=1, DMSO solvent control = 100) | 5 uM Avg Antibacterial Score ([1]; 5 uM compound, n=1, DMSO solvent control = 98, rifampicin 2 μg/mL = 65) | 25 uM Avg Antibacterial Score ([1]; 25 uM compound, n=1, DMSO solvent control = 98, rifampicin 2 μg/mL = 65) | IC50 ([1]; Salmonella enterica, TYPHIMURIUM, RAW264.7, read-out: SAFIRE IC50) [nM]
1 | OC(COc1ccc(Cl)c(Cl)c1)CN1CCCC(N2CCOCC2)C1 (centres unmarked) [CU030] | 57 | 126 | 102 | 45 | – | – | – | – | –
2 | N#Cc1ccc(OCC(O)CN2CCC(N)C2)cc1 (centres unmarked) [CU154] | 99 | 123 | 112 | 111 | – | – | – | – | –
3 | OC(COc1ccc(Cl)c(Cl)c1)CN1CCN(C2CCOC2)CC1 (centres unmarked) [CU180] | 96 | 100 | 106 | 82 | – | – | – | – | –
4 | NC1CCN(CC(O)COc2ccccc2)C1 (centres unmarked) [CU151] | 128 | 147 | 108 | 91 | – | – | – | – | –
5 | OC(COc1c(Cl)cccc1Cl)CN1CCC(Nc2nccc(C(F)(F)F)n2)CC1 (centres unmarked) [CU109] | 74 | 44 | 56 | Toxic | – | – | – | – | –
6 | OC(COc1ccc(Cl)c(Cl)c1)CN1CCC2(CCN2)C1 (centres unmarked) [CU149] | 128 | 108 | 73 | 53 | – | – | – | – | –
7 | CCc1ccc(OCC(O)CN2CCC(Nc3nccc(C(F)(F)F)n3)CC2)cc1 (centres unmarked) [CU074] | 71 | 114 | 10 | Toxic | – | – | – | – | –
8 | NCCC1CCN(CC(O)COc2ccc(Cl)c(Cl)c2)C1 (centres unmarked) [CU251] | – | – | – | – | 108 | 101 | 100 | 103 | –
9 | CO[C@@H]1CCN(CC(O)COc2ccc(Cl)c(Cl)c2)C1 (some centres unmarked) [CU127] | 92 | 85 | 97 | 46 | – | – | – | – | –
10 | OC(COc1ccc(Cl)c(Cl)c1)CN1CCC(Nc2nccc(C(F)(F)F)n2)C1 (centres unmarked) [CU089] | 101 | 91 | 30 | Toxic | – | – | – | – | –
11 | OC(CNCc1csc(Cl)c1)COc1ccc(Cl)c(Cl)c1 (centres unmarked) [CU155] | 95 | 78 | 107 | Toxic | – | – | – | – | –
12 | N[C@H]1CC[C@H](N2CC(COc3cc(Cl)cc(Cl)c3)OC2=O)CC1 (some centres unmarked) [CU219] | 137 | 123 | 93 | 22 | – | – | – | – | –
13 | OC(COc1ccc(F)cc1)CN1CCC(Nc2nccc(C(F)(F)F)n2)CC1 (centres unmarked) [CU037] | 74 | 117 | 106 | 23 | – | – | – | – | –
14 | CC(=O)NC1CCN(CC(O)COc2ccc(Cl)c(Cl)c2)CC1 (centres unmarked) [CU063] | 107 | 119 | 102 | 78 | – | – | – | – | –
15 | OC(CNC1CCNCC1)COc1cccc(Cl)c1 (centres unmarked) [CU199] | 105 | 115 | 83 | 55 | – | – | – | – | –
16 | OC(CNC1CCNCC1)COc1ccc(Cl)c(Cl)c1 (centres unmarked) [CU174] | 98 | 97 | 40 | 18 | – | – | – | – | –
17 | OC(COc1ccccc1F)CN1CCC(Nc2nccc(C(F)(F)F)n2)C1 (centres unmarked) [CU139] | 95 | 73 | 99 | 28 | – | – | – | – | –
18 | NC1CCN(C[C@H](O)COc2ccc(Cl)c(Cl)c2)C1 (some centres unmarked) [CU160] | 137 | 129 | 51 | 35 | – | – | – | – | 2.6
19 | OC(COc1ccc(F)c(F)c1)CN1CCC(Nc2nccc(C(F)(F)F)n2)CC1 (centres unmarked) [CU169] | 106 | 91 | 84 | 6 | – | – | – | – | –
